How the values were obtained:
PknB = target: T1, PknB (Mycobacterium tuberculosis, UniProt P9WI81); test: biochemical; set-up: species or system M. tuberculosis; settings: 3 nM PknB, 6 uM GarA, 3 μM ATP, 30 min, competitive tight-binding fit, several symbols in a cell = repeat determinations; for Ki: read-out: Ki Values
T1 construct: made in house

[1] = tested on: Mycobacterium tuberculosis H37Ra; test: Mycobacterium tuberculosis growth inhibition assay (microtiter dilution, resazurin reduction); format: cell-based; settings: 7H9 broth, 9 days + 24 h resazurin, lowest concentration inhibiting resazurin reduction by >70%, several symbols in a cell = repeat determinations
Method: Compounds were screened for their ability to inhibit the growth of Mycobacterium tuberculosis H37Ra using a standard microtiter dilution method with reduction of the dye resazurin as an indicator of growth. The growth assay was carried out in standard Mycobacterium liquid growth medium, 7H9Broth (BD Biosciences, Franklin Lakes, N.J.) supplemented with 10% ADC enrichment (BD Biosciences, Franklin Lakes, N.J.). The medium was inoculate with ˜1×10^6 cells/milliliter of Mycobacterium tuberculosis H37Ra grown on a the surface of a growth medium solid medium (7H11 agar [BD Biosciences, Franklin Lakes, N.J.] supplemented with 10% OADC enrichment [BD Biosciences, Franklin Lakes, N.J.]).
Two-fold serial dilutions (either 7 or 11-step series) of test compounds in DMSO were dispensed into 96-well assay plates (sterile, black sided, clear bottom wells) in a volume of 1 microliter. One microliter of DMSO was dispensed into a control well at the end of each series. One-hundred microliters of the bacterial cell suspension in growth medium was dispensed into each test well containing a DSMO solution of compound. The assay plates were covered with a fitted lid and incubated at 37° C. in a humidified chamber for 9 days. On the ninth day 30 microliters of a 0.01% solution of resazurin (Sigma Chemical Co., St. Louis, Mo.) in distilled water was added to each well and the baseline fluorescence of resazurin was determined by measuring well fluorescence at an excitation wavelength of 492 nm and an emission wavelength of 595 nm on a Spectrafluor Plus (Tecan, Durham, N.C.) instrument. The assay plates were returned to the incubation chamber for 24 hours. After 24 hours, the fluorescence of the wells (resulting from the reduction of resazurin dye) was measured at an excitation wavelength of 492 nm and an emission wavelength of 595 nm on the Spectrafluor Plus instrument. The minimum inhibitory concentration (MIC) was called as the lowest concentration of compound that inhibited the reduction of resazurin by >70%, as compared to the DMSO (untreated) control wells. MIC values are represented as the following values: • A* <1.6 μM • A 1.6 μM<12.5 μM • B** 12.5 μM-25.0 μM • B* 25.0 μM-50.0 μM • B 50.0 μM-100.0 μM • C >100.0 μM

T1 sequence (P9WI81 whole entry): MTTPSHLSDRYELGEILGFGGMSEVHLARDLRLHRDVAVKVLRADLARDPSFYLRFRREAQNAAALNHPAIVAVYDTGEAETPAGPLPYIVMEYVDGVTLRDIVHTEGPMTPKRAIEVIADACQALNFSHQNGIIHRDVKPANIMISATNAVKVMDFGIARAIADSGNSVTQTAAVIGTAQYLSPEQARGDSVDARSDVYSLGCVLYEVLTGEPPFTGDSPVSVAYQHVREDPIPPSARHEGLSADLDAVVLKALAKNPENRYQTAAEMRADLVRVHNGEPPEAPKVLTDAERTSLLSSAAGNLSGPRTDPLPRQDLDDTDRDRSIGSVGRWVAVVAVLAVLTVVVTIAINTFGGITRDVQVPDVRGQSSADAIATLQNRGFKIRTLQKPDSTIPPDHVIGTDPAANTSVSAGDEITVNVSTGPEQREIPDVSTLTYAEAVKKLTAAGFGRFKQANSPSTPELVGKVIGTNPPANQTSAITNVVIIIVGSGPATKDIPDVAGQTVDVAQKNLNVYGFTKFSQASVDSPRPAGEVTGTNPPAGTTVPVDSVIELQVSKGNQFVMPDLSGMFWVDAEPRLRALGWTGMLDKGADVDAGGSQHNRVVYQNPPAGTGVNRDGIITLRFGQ

| SMILES | Ki (PknB) [nM] | MIC values [1] | Ki Values (PknB) |
| --- | --- | --- | --- |
| N#CCc1ccc(Nc2nccc(Nc3cc(C4CC4)[nH]n3)n2)cc1 [Compound 1, 2-(4-(4-(5-cyclopropyl-1H-pyrazol-3-ylamino)pyrimidin-2-ylamino)phenyl)acetonitrile] | 10 to 50 | BM, B | – |
| NS(=O)(=O)c1ccc(Nc2nccc(Nc3cc(C4CC4)[nH]n3)n2)cc1 [Compound 12, 4-(4-(5-cyclopropyl-1H-pyrazol-3-ylamino)pyrimidin-2-ylamino)benzene sulfonamide] | 1 to 10 | B+ | – |
| C#Cc1cnc(-c2ccccc2)nc1Nc1cc(C2CC2)[nH]n1 [Compound 14, N-(5-cyclopropyl-1H-pyrazol-3-yl)-5-ethynyl-2-phenylpyrimidin-4-amine] | – | B+, B | A*, A |
| N#CCc1ccc(-c2ncc(Cl)c(Nc3cc(C4CC4)[nH]n3)n2)cc1 [Compound 18, 2-(4-(5-chloro-4-(5-cyclopropyl-1H-pyrazol-3-ylamino)pyrimidin-2-yl)phenyl)acetonitrile] | – | B, B, C | A**, A* |
| N#CCc1ccc(-c2ncc(F)c(Nc3cc(C4CC4)[nH]n3)n2)cc1 [Compound 19, 2-(4-(4-(5-cyclopropyl-1H-pyrazol-3-ylamino)-5-fluoropyrimidin-2-yl)phenyl)acetonitrile] | 1 to 10 | B, B, C, C | – |
| C=C(Cl)c1cnc(-c2ccccc2)nc1Nc1cc(C2CC2)[nH]n1 [Compound 21, 5-(1-chlorovinyl)-N-(5-cyclopropyl-1H-pyrazol-3-yl)-2-phenyl-pyrimidin-4-amine] | 500 to 1000 | B+, B, B | – |
| OCc1ccc(-c2ncc(Cl)c(Nc3cc(C4CC4)[nH]n3)n2)s1 [Compound 25, [5-[5-chloro-4-[(5-cyclopropyl-1H-pyrazol-3-yl)amino]-pyrimidin-2-yl]-2-thienyl]methanol] | 10 to 50 | B+ | – |
| OCc1ccc(-c2ncc(F)c(Nc3cc(C4CC4)[nH]n3)n2)s1 [Compound 26, (5-(4-(5-cyclopropyl-1H-pyrazol-3-ylamino)-5-fluoropyrimidin-2-yl)thiophen-2-yl)methanol] | 10 to 50 | B+ | – |
| Cc1cnc(-c2ccc(Cl)c(C(N)=O)c2)nc1Nc1cc(C2CC2)[nH]n1 [Compound 32, 2-chloro-5-[4-[(5-cyclopropyl-1H-pyrazol-3-yl)amino]-5-methyl-pyrimidin-2-yl]-benzamide] | 50 to 100 | B+ | – |
| CNS(=O)(=O)c1ccc(-c2ncc(C)c(Nc3cc(C4CC4)[nH]n3)n2)s1 [Compound 33, 5-[4-[(5-cyclopropyl-1H-pyrazol-3-yl)amino]-5-methyl-pyrimidin-2-yl]-N-methyl-thiophene-2-sulfonamide] | 10 to 50 | B+ | – |
| Cc1cnc(-c2ccc(CO)s2)nc1Nc1cc(C2CC2)[nH]n1 [Compound 36, [5-[4-[(5-cyclopropyl-1H-pyrazol-3-yl)amino]-5-methyl-pyrimidin-2-yl]-2-thienyl]methanol] | 50 to 100 | B++, B+ | – |
| CNS(=O)(=O)c1ccc(-c2ncc(Cl)c(Nc3cc(C4CC4)[nH]n3)n2)s1 [Compound 37, 5-[5-chloro-4-[(5-cyclopropyl-1H-pyrazol-3-yl)amino]-pyrimidin-2-yl]-N-methyl-thiophene-2-sulfonamide] | 1 to 10 | B+ | – |
| Fc1cnc(-c2cccs2)nc1Nc1cc(C2CC2)[nH]n1 [Compound 41, N-(5-cyclopropyl-1H-pyrazol-3-yl)-5-fluoro-2-(thiophen-2-yl)pyrimidin-4-amine] | 10 to 50 | B+ | – |
| CNS(=O)(=O)c1ccc(-c2ncc(F)c(Nc3cc(C4CC4)[nH]n3)n2)s1 [Compound 43, 5-[4-[(5-cyclopropyl-1H-pyrazol-3-yl)amino]-5-fluoro-pyrimidin-2-yl]-N-methyl-thiophene-2-sulfonamide] | 1 to 10 | B++ | – |
| NC(=O)c1cc(-c2nccc(Nc3cc(C4CC4)[nH]n3)n2)ccc1Cl [Compound 51, 2-chloro-5-[4-[(5-cyclopropyl-1H-pyrazol-3-yl)amino]pyrimidin-2-yl]-benzamide] | 50 to 100 | B++ | – |
| OC/C=C/c1cnc(-c2ccccc2)nc1Nc1cc(C2CC2)[nH]n1 [Compound 53, (E)-3-(4-(5-cyclopropyl-1H-pyrazol-3-ylamino)-2-phenylpyrimidin-5-yl)prop-2-en-1-ol] | – | B+ | A, B**, B** |
| O=C(O)c1cccc(Nc2nccc(Nc3cc(C4CC4)n[nH]3)n2)c1 [Compound 63, 3-[[4-[(5-cyclopropyl-2H-pyrazol-3-yl)amino]pyrimidin-2-yl]amino]benzoic acid] | > 4000 | B+ | – |
| CCCc1cnc(N2CCCCC2)nc1Nc1cc(C2CC2)[nH]n1 [Compound 66, N-(5-cyclopropyl-1H-pyrazol-3-yl)-2-(1-piperidyl)-5-propyl-pyrimidin-4-amine] | 1000 to 2000 | B+ | – |
| COc1cnc(N2CCN(C)CC2)nc1Nc1cc(C2CC2)[nH]n1 [Compound 67, N-(5-cyclopropyl-1H-pyrazol-3-yl)-5-methoxy-2-(4-methylpiperazin-1-yl)-pyrimidin-4-amine] | 10 to 50 | A+ | – |
| CN(C)S(=O)(=O)c1ccc(-c2ncc(Cl)c(Nc3cc(C4CC4)[nH]n3)n2)s1 [Compound 74, 5-[5-chloro-4-[(5-cyclopropyl-1H-pyrazol-3-yl)amino]-pyrimidin-2-yl]-N,N-dimethyl-thiophene-2-sulfonamide] | 1 to 10 | A, B++, C | – |
| O=C(O)c1ccc(Nc2ncc(Cl)c(Nc3cc(C4CC4)[nH]n3)n2)cc1 [Compound 77, 4-[[5-chloro-4-[(5-cyclopropyl-1H-pyrazol-3-yl)amino]-pyrimidin-2-yl]amino]benzoic acid] | 100 to 500 | B, C | – |
| CC(C)(C)OC(=O)NCCNS(=O)(=O)c1ccc(-c2ncc(Cl)c(Nc3cc(C4CC4)[nH]n3)n2)s1 [Compound 78, tert-Butyl 2-(5-(5-chloro-4-(5-cyclopropyl-1H-pyrazol-3-ylamino)pyrimidin-2-yl)thiophene-2-sulfonamido)ethylcarbamate] | 100 to 500 | A, B++, C, C | – |
| CN(C)CCNS(=O)(=O)c1ccc(-c2ncc(Cl)c(Nc3cc(C4CC4)[nH]n3)n2)s1 [Compound 79, 5-[5-chloro-4-[(5-cyclopropyl-1H-pyrazol-3-yl)amino]-pyrimidin-2-yl]-N-(2-dimethylaminoethyl)thiophene-2-sulfonamide] | 10 to 50 | B+, B | – |
| Nc1ccc(Nc2nccc(Nc3cc(C4CC4)n[nH]3)n2)cc1 [Compound 80, N-(4-aminophenyl)-N′-(5-cyclopropyl-2H-pyrazol-3-yl)-pyrimidine-2,4-diamine] | – | B, C | A, B** |
| CC(=O)OC/C=C/c1cnc(-c2ccccc2)nc1Nc1cc(C2CC2)[nH]n1 [Compound 81, (E)-3-(4-(5-cyclopropyl-1H-pyrazol-3-ylamino)-2-phenylpyrimidin-5-yl)allyl acetate] | 100 to 500 | B++, B+ | – |
| O=S(=O)(NCCO)c1ccc(Nc2nccc(Nc3cc(C4CC4)n[nH]3)n2)cc1 [Compound 83, 4-[[4-[(5-cyclopropyl-2H-pyrazol-3-yl)amino]pyrimidin-2-yl]amino]-N-(2-hydroxyethyl)benzenesulfonamide] | – | B+ | A**, A* |
| O=S(=O)(NCCO)c1ccc(-c2ncc(Cl)c(Nc3cc(C4CC4)[nH]n3)n2)s1 [Compound 86, 5-[5-chloro-4-[(5-cyclopropyl-1H-pyrazol-3-yl)amino]-pyrimidin-2-yl]-N-(2-hydroxyethyl)thiophene-2-sulfonamide] | 1 to 10 | B++ | – |
| COCCNS(=O)(=O)c1ccc(-c2ncc(Cl)c(Nc3cc(C4CC4)[nH]n3)n2)s1 [Compound 88, 5-(5-chloro-4-(5-cyclopropyl-1H-pyrazol-3-ylamino)pyrimidin-2-yl)-N-(2-methoxyethyl)thiophene-2-sulfonamide] | 10 to 50 | B+, C | – |
| O=S(=O)(NC1CC1)c1ccc(Nc2nccc(Nc3cc(C4CC4)n[nH]3)n2)cc1 [Compound 90, N-cyclopropyl-4-[[4-[(5-cyclopropyl-2H-pyrazol-3-yl)amino]pyrimidin-2-yl]amino]-benzenesulfonamide] | 10 to 50 | B+ | – |
